Measured values as given in PubChem BioAssay AID1259407 (Chemical Carcinogenesis Research Information System (CCRIS), 2018).
Calls of active or inactive are those of the source. No rule for the calls is given here.

Tested on: CCRIS mutagenicity, Ames/micronucleus/aberration tests
Test: CCRIS mutagenicity studies

SMILES: CCCCC(CC)COC(=O)c1ccccc1C(=O)OCC(CC)CCCC (stereo not drawn)
- mutagenic call (Test System: AMES SALMONELLA TYPHIMURIUM, Strain/Indicator: TA1535, Metabolic Activation: RAT LIVER S-9, PHENOBARBITAL AND BETA-NAPHTHOFLAVONE, Method: PREINCUBATION): inactive; negative
- mutagenic call (Test System: AMES SALMONELLA TYPHIMURIUM, Strain/Indicator: TA1535, Metabolic Activation: RAT, LIVER, S-9, AROCLOR 1254 (10%), Method: PREINCUBATION): inactive; negative
- mutagenic call (Test System: AMES SALMONELLA TYPHIMURIUM, Strain/Indicator: TA1535, Metabolic Activation: RAT, LIVER, S-9, AROCLOR 1254, Method: STANDARD PLATE): inactive; negative
- mutagenic call (Test System: AMES SALMONELLA TYPHIMURIUM, Strain/Indicator: TA1537, Metabolic Activation: HAMSTER, LIVER, S-9, AROCLOR 1254 (10%), Method: PREINCUBATION): inactive; negative
- mutagenic call (Test System: AMES SALMONELLA TYPHIMURIUM, Strain/Indicator: TA1537, Metabolic Activation: NONE, Method: FLUCTUATION (MICROTITER)): inactive; negative
- mutagenic call (Test System: AMES SALMONELLA TYPHIMURIUM, Strain/Indicator: TA1537, Metabolic Activation: NONE, Method: PREINCUBATION): inactive; negative
- mutagenic call (Test System: AMES SALMONELLA TYPHIMURIUM, Strain/Indicator: TA1537, Metabolic Activation: NONE, Method: STANDARD PLATE): inactive; negative
- mutagenic call (Test System: AMES SALMONELLA TYPHIMURIUM, Strain/Indicator: TA1537, Metabolic Activation: RAT LIVER S-9, AROCLOR 1254, Method: FLUCTUATION (MICROTITER)): inactive; negative
- mutagenic call (Test System: AMES SALMONELLA TYPHIMURIUM, Strain/Indicator: TA1537, Metabolic Activation: RAT LIVER S-9, PHENOBARBITAL AND BETA-NAPHTHOFLAVONE, Method: PREINCUBATION): inactive; negative
- mutagenic call (Test System: AMES SALMONELLA TYPHIMURIUM, Strain/Indicator: TA1537, Metabolic Activation: RAT, LIVER, S-9, AROCLOR 1254 (10%), Method: PREINCUBATION): inactive; negative
- mutagenic call (Test System: AMES SALMONELLA TYPHIMURIUM, Strain/Indicator: TA1537, Metabolic Activation: RAT, LIVER, S-9, AROCLOR 1254, Method: STANDARD PLATE): inactive; negative
- mutagenic call (Test System: AMES SALMONELLA TYPHIMURIUM, Strain/Indicator: TA1538, Metabolic Activation: NONE, Method: STANDARD PLATE): inactive; negative
- mutagenic call (Test System: AMES SALMONELLA TYPHIMURIUM, Strain/Indicator: TA1538, Metabolic Activation: RAT, LIVER, S-9, AROCLOR 1254, Method: STANDARD PLATE): inactive; negative
- mutagenic call (Test System: AMES SALMONELLA TYPHIMURIUM, Strain/Indicator: TA2638, Metabolic Activation: RAT LIVER S-9, PHENOBARBITAL AND 5,6-BENZOFLAVONE, Method: STANDARD PLATE): inactive; negative
- mutagenic call (Test System: AMES SALMONELLA TYPHIMURIUM, Strain/Indicator: TA7001, Metabolic Activation: NONE, Method: FLUCTUATION (MICROTITER)): inactive; negative
- mutagenic call (Test System: AMES SALMONELLA TYPHIMURIUM, Strain/Indicator: TA7001, Metabolic Activation: RAT LIVER S-9, AROCLOR 1254, Method: FLUCTUATION (MICROTITER)): inactive; negative
- mutagenic call (Test System: AMES SALMONELLA TYPHIMURIUM, Strain/Indicator: TA7002, Metabolic Activation: NONE, Method: FLUCTUATION (MICROTITER)): inactive; negative
- mutagenic call (Test System: AMES SALMONELLA TYPHIMURIUM, Strain/Indicator: TA7002, Metabolic Activation: RAT LIVER S-9, AROCLOR 1254, Method: FLUCTUATION (MICROTITER)): inactive; negative
- mutagenic call (Test System: AMES SALMONELLA TYPHIMURIUM, Strain/Indicator: TA7003, Metabolic Activation: NONE, Method: FLUCTUATION (MICROTITER)): inactive; negative
- mutagenic call (Test System: AMES SALMONELLA TYPHIMURIUM, Strain/Indicator: TA7003, Metabolic Activation: RAT LIVER S-9, AROCLOR 1254, Method: FLUCTUATION (MICROTITER)): inactive; negative
- mutagenic call (Test System: AMES SALMONELLA TYPHIMURIUM, Strain/Indicator: TA7004, Metabolic Activation: NONE, Method: FLUCTUATION (MICROTITER)): inactive; negative
- mutagenic call (Test System: AMES SALMONELLA TYPHIMURIUM, Strain/Indicator: TA7004, Metabolic Activation: RAT LIVER S-9, AROCLOR 1254, Method: FLUCTUATION (MICROTITER)): inactive; negative
- mutagenic call (Test System: AMES SALMONELLA TYPHIMURIUM, Strain/Indicator: TA7005, Metabolic Activation: NONE, Method: FLUCTUATION (MICROTITER)): inactive; negative
- mutagenic call (Test System: AMES SALMONELLA TYPHIMURIUM, Strain/Indicator: TA7005, Metabolic Activation: RAT LIVER S-9, AROCLOR 1254, Method: FLUCTUATION (MICROTITER)): inactive; negative
- mutagenic call (Test System: AMES SALMONELLA TYPHIMURIUM, Strain/Indicator: TA7006, Metabolic Activation: NONE, Method: FLUCTUATION (MICROTITER)): inactive; negative
- mutagenic call (Test System: AMES SALMONELLA TYPHIMURIUM, Strain/Indicator: TA7006, Metabolic Activation: RAT LIVER S-9, AROCLOR 1254, Method: FLUCTUATION (MICROTITER)): inactive; negative
- mutagenic call (Test System: E. COLI, Strain/Indicator: WP2 (PKM101), Metabolic Activation: RAT LIVER S-9, PHENOBARBITAL, AND 5,6-BENZOFLAVONE, Method: STANDARD PLATE): inactive; negative
- mutagenic call (Test System: E. COLI, Strain/Indicator: WP2 UVRA (PKM101), Metabolic Activation: RAT LIVER S-9, PHENOBARBITAL AND 5,6-BENZOFLAVONE, Method: STANDARD PLATE): inactive; negative
- mutagenic call (Test System: E.COLI, Strain/Indicator: WP2UVRA, Metabolic Activation: NONE, Method: PREINCUBATION): inactive; negative
- mutagenic call (Test System: E.COLI, Strain/Indicator: WP2UVRA, Metabolic Activation: RAT LIVER S-9, PHENOBARBITAL AND BETA-NAPHTHOFLAVONE, Method: PREINCUBATION): inactive; negative
- mutagenic call (Test System: MOUSE LYMPHOMA, Strain/Indicator: L5178Y (TK+/+)/OUABAIN, Metabolic Activation: NONE, Method: SUSPENSION/PLATE): inactive; negative
- mutagenic call (Test System: MOUSE LYMPHOMA, Strain/Indicator: L5178Y (TK+/+)/OUABAIN, Metabolic Activation: RAT LIVER S-9, AROCLOR 1254, Method: SUSPENSION/PLATE): inactive; negative
- mutagenic call (Test System: MOUSE LYMPHOMA, Strain/Indicator: L5178Y (TK+/-)/TRIFLUROTHYMIDINE, Metabolic Activation: NONE, Method: SUSPENSION/PLATE): inactive; negative
- mutagenic call (Test System: MOUSE LYMPHOMA, Strain/Indicator: L5178Y (TK+/-)/TRIFLUROTHYMIDINE, Metabolic Activation: RAT LIVER S-9, AROCLOR 1254, Method: SUSPENSION/PLATE): inactive; negative
- mutagenic call (Test System: MOUSE LYMPHOMA, Strain/Indicator: L5178Y (TK+/TK-), Metabolic Activation: NONE, Method: SUSPENSION/PLATE): inactive; negative
- mutagenic call (Test System: MOUSE LYMPHOMA, Strain/Indicator: L5178Y (TK+/TK-), Metabolic Activation: RAT, LIVER, S-9, AROCLOR 1254, Method: SUSPENSION/PLATE): active; positive
- mutagenic call (Test System: MOUSE LYMPHOMA, Strain/Indicator: L5178Y (TK+/TK-), Metabolic Activation: RAT, LIVER, S-9, Method: SUSPENSION/PLATE): inactive; negative
- mutagenic call (Test System: UDS RAT HEPATOCYTES, Strain/Indicator: THY INCORP, Metabolic Activation: NONE, Method: LIQUID SCINTILLATION COUNTING): active; positive
